This note sets out measurements from ChEMBL document CHEMBL1201862, “PubChem BioAssay data set” (2004).

SMILES strings stand for the structures. Active and inactive are the calls of the source.

Experiment [1] can be described thus: Luminescence Cell-Based Dose Response HTS to Identify Activators of Luciferase Translation or Activity in H4 […] Cells. [Related pubchem assays: 1829 (Project Summary), 1814 (Primary HTS)]. The class given is functional.
A further experiment deals with H4. Briefly: Luminescence Cell-Based Dose Response HTS to Identify Activators of 5'UTR Stem-Loop Driven Prion Protein mRNA Translation in H4 Neuroglioblastoma Cells. [Related pubchem assays: 1829 (Project Summary), 1814 (Primary HTS)]. The class given is functional. The following applies: Homo sapiens.
The test system of experiment [2] is Vero. As to the kind of experiment: mammalian cell viability reduction – secondary assay, cytotoxicity control for West Nile virus antiviral project, dose response (AID 1650). The following applies: Chlorocebus sabaeus. Format: functional.
Experiment [3] can be described thus: Luminescence Cell-Based Dose Retest to Confirm Inhibitors of Cancer Stem Cells. [Related pubchem assays (depositor defined):AID2717, AID2721]. Format: functional. The note with it: Homo sapiens.
The target in experiment [4] is T1, Replicative DNA helicase DnaB (Mycobacterium tuberculosis, UniProt P9WMR3).
T1 sequence (P9WMR3 whole entry): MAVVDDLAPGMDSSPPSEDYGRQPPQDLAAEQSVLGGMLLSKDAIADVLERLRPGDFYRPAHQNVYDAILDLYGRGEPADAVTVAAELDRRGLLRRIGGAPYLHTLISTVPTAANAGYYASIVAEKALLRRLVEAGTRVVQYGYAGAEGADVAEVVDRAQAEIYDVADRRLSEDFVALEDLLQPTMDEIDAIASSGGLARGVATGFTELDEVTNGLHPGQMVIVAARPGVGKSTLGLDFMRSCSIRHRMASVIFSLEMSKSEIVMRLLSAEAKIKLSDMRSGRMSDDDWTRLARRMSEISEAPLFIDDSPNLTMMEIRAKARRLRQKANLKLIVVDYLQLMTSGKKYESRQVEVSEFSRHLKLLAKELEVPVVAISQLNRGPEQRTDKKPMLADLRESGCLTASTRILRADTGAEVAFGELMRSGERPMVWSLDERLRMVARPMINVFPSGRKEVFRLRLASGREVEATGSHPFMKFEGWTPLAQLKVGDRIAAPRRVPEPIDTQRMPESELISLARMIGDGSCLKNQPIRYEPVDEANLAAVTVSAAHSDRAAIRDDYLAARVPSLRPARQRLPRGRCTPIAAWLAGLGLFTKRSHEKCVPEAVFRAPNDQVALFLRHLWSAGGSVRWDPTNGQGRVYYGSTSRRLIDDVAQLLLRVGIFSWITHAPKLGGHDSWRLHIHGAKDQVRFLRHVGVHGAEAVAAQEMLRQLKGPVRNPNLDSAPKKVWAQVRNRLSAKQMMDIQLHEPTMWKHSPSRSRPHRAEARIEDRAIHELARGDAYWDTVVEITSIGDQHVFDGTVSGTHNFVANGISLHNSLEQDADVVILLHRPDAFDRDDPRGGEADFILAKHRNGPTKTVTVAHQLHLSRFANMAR
As to the kind of experiment: DnaB intein splicing inhibitors, dose response, biochemical, cell-free fluorescence (AID 449749). Format: functional.

The subject of experiment [5] is Vero. Briefly: cells. The following applies: Chlorocebus sabaeus. The class given is functional, cell-based.
The target in a further experiment is T2, Protein RecA (Mycobacterium tuberculosis, UniProt P9WHJ3).
T2 sequence (P9WHJ3 whole entry): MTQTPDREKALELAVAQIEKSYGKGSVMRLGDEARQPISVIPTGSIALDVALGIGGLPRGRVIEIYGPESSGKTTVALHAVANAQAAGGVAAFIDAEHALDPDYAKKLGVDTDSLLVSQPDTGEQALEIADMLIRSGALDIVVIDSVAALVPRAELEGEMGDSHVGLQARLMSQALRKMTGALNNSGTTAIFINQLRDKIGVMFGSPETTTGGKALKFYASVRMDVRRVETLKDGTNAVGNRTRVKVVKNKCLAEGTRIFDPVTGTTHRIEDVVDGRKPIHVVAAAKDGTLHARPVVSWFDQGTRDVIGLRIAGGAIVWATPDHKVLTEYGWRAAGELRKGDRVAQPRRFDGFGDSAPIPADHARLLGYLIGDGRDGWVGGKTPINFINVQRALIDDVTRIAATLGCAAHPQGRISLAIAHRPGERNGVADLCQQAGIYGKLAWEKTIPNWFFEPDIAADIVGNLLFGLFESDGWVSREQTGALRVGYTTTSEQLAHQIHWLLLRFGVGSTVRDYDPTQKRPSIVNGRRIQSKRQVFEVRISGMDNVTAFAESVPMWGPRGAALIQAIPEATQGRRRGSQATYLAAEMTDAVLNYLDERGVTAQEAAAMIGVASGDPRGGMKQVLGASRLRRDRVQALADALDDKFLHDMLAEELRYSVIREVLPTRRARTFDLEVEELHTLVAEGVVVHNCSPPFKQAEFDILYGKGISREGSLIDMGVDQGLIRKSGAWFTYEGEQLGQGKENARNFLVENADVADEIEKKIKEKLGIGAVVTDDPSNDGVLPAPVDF
As to the kind of experiment: Fluorescence Cell-Free Homogeneous Dose Retest to Identify Inhibitors of RecA-Intein Splicing Activity. [Related pubchem assays (depositor defined):AID2097, AID2223, AID489010, AID492950]. Format: functional.

Another experiment relates to INS1. As to the kind of experiment: INS-1E survival protection against cytokine death – cell-based, luminescence, retest, dose response (AID 449756).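 Further: cell death triggered by IL-1 beta plus TNF-alpha plus IFN-gamma mixture; protective hits raise ATP signal compared with cytokine alone wells.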 Format: functional. The note with it: Rattus norvegicus.
Experiment [6] deals with Vero. Briefly: cells. The class given is functional. The note with it: Chlorocebus sabaeus.
A short description of experiment [7]: A Cell-Based Counter Screen testing Compounds that Inhibit VEEV TC-83, in strain KU V3526. Format: functional.
Experiment [8] in a line: A Cell-Based Confirmatory Screen for Compounds that Inhibit VEEV, TC-83 (2). The class given is functional.
Experiment [9] concerns the target T3, Caspase-3 (Homo sapiens, UniProt P42574).
T3 sequence (P42574 whole entry): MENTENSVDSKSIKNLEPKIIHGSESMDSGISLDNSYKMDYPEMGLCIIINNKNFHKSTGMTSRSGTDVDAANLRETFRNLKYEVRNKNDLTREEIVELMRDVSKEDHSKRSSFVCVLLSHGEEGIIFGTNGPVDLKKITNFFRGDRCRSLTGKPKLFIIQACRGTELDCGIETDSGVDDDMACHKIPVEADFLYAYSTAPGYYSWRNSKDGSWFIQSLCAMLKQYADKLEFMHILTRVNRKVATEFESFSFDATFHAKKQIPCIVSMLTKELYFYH
Format: functional.

The target of experiment [10] is T4, Sentrin-specific protease 7 (Homo sapiens, UniProt Q9BQF6).
T4 sequence (Q9BQF6 whole entry): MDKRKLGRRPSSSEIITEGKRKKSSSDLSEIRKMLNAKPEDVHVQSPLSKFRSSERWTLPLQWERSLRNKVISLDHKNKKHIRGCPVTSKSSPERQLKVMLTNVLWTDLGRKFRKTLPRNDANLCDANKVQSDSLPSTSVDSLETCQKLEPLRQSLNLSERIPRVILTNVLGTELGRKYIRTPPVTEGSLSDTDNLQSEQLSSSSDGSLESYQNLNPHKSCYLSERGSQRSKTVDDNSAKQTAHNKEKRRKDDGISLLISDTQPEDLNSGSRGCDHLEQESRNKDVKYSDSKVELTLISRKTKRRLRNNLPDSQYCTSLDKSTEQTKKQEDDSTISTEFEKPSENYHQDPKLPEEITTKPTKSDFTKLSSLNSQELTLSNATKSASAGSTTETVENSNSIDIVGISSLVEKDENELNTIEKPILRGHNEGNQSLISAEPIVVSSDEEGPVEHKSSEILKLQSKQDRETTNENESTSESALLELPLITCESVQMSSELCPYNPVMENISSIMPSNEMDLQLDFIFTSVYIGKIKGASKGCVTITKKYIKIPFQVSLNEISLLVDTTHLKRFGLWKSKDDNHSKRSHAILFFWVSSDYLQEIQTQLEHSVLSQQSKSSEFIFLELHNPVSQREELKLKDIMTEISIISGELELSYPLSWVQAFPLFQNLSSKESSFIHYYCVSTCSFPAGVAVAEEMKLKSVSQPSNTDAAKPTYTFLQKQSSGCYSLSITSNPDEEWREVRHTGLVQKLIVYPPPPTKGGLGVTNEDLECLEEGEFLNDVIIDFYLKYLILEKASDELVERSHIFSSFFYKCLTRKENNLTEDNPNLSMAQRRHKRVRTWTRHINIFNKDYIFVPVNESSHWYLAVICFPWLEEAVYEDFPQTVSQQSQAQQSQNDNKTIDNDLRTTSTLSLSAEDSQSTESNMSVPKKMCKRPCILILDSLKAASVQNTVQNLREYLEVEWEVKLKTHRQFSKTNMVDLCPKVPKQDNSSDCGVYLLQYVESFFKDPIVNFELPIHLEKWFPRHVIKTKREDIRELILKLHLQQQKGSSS
Format: functional.

Another experiment deals with Nonstructural protein 1 (Influenza A virus, UniProt Q194T2). Format: functional, Influenza A virus (A/California/07/2009(H1N1)).
Chain of Nonstructural protein 1 (Q194T2 whole entry): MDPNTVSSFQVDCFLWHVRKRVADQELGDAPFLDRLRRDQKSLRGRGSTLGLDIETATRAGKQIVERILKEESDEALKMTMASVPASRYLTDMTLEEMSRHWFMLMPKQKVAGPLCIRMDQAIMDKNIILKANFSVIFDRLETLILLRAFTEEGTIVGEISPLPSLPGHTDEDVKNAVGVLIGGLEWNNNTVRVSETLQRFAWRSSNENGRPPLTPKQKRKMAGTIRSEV
In experiment [11] the target is T5, Sentrin-specific protease 6 (Homo sapiens, UniProt Q9GZR1).
T5 sequence (Q9GZR1 whole entry): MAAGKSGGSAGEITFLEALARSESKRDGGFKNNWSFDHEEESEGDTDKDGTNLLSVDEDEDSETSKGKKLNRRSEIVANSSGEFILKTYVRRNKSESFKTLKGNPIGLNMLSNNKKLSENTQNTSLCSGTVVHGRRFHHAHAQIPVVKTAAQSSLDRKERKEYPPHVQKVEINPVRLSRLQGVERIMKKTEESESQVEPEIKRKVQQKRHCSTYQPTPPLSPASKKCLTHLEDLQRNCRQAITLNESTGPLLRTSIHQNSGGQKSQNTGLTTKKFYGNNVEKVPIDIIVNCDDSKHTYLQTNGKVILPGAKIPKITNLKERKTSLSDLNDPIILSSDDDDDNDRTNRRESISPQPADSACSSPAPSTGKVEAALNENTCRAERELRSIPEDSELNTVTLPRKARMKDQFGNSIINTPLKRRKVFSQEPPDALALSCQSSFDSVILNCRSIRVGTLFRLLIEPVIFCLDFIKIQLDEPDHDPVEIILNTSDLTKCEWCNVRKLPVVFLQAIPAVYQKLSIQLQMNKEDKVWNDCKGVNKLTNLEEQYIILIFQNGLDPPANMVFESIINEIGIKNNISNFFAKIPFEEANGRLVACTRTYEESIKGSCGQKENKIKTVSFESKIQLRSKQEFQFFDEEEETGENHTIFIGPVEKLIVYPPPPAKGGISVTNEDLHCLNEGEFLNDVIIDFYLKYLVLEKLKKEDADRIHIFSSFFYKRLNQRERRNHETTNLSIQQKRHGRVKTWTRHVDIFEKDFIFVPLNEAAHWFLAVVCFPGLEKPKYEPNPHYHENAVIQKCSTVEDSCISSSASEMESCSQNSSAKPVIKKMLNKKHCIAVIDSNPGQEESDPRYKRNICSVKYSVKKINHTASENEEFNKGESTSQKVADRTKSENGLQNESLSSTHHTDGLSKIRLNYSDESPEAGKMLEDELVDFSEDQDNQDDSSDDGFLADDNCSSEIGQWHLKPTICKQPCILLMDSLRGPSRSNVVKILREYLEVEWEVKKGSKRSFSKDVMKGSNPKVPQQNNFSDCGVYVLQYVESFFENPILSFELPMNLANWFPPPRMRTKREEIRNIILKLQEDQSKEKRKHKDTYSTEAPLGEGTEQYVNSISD
Format: functional.

Experiment [12] deals with T6, Sentrin-specific protease 8 (Homo sapiens, UniProt Q96LD8).
T6 sequence (Q96LD8 whole entry): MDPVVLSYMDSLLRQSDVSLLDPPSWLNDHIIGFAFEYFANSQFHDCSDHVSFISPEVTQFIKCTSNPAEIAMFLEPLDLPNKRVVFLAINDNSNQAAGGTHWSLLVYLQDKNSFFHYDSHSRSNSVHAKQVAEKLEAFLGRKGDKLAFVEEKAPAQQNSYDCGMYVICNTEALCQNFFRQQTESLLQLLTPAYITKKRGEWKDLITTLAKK
The class given is functional.

For experiment [13], the target named is T6, Sentrin-specific protease 8. As to the kind of experiment: inhibition of human SENP8 cleavage activity – biochemical, luminescence, SAR follow-up (AID 504501). The class given is functional.
Experiment [14] has as its target T3, Caspase-3. Briefly: SAR Analysis of small molecule inhibitors of Sentrin-specific proteases (SENPs) using a Caspase-3 Selectivity assay. [Related pubchem assays (depositor defined):AID2540, AID2599, AID434973, AID489001]. Format: functional.
Experiment [15] has as its target T5, Sentrin-specific protease 6. As to the kind of experiment: SAR Analysis of small molecule inhibitors of Sentrin-specific protease 6 (SENP6) using a Luminescent assay. [Related pubchem assays (depositor defined):AID2582, AID2599]. The class given is functional.
Experiment [16] has as its target T4, Sentrin-specific protease 7. Briefly: inhibition of human SENP7 cleavage activity – biochemical, luminescence, SAR follow-up (AID 504497). Format: functional.
Experiment [17] concerns the target Oxysterols receptor LXR-beta (Homo sapiens, UniProt P55055). Format: functional, cell-based.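 Further: Cell-based luminescence dose-response assay of agonist activity at LXR, run as a confirmatory counterscreen to a daf-12 agonist screen; HEK293 cells with Gal4-LXR fusion and GAL4-driven luciferase reporter; agonist potency from rising luciferase signal of a Gal4-LXR reporter.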
Another experiment addresses Cytochrome P450 2D6 (Homo sapiens, UniProt P10635).

Chain of Oxysterols receptor LXR-beta (P55055 whole entry, the tested form may be a part): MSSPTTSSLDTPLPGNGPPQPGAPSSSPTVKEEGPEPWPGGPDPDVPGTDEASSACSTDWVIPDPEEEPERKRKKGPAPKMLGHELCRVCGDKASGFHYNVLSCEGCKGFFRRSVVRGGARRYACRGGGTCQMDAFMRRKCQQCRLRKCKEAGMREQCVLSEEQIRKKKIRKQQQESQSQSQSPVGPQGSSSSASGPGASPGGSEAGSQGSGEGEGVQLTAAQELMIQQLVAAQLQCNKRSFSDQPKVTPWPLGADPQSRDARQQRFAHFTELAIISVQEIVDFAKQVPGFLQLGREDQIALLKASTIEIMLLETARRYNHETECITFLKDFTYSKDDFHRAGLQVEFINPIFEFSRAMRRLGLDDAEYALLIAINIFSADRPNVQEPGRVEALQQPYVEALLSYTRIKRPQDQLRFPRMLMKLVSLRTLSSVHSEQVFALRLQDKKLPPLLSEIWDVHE
Chain of Cytochrome P450 2D6 (P10635 whole entry): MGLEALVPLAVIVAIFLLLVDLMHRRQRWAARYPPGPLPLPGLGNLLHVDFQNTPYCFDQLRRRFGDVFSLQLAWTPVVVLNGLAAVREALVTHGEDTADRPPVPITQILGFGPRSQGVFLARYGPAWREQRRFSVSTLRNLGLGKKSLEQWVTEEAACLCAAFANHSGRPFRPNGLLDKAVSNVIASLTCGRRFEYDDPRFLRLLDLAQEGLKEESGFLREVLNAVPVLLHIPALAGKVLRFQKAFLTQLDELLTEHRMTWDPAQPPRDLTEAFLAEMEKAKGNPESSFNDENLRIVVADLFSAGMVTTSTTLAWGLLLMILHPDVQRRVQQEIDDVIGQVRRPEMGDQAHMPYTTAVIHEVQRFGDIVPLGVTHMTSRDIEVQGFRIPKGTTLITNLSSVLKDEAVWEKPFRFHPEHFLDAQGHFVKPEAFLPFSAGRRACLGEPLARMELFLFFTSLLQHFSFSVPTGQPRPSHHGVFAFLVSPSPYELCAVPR

In the case of `Clc1ccc2nnnc(-c3ccccc3)c2c1`, the EC50 is 2.12 µM (active) in experiment [1], > 120 µM (not active) with H4 and 3.78 µM (active) at Protein RecA. Also, the 50% cytotoxic concentration (CC50) with Vero [2] is 12.3 µM (active); in the experiment with Vero [6], > 25 µM (active). The concentration at half-maximal activity (AC50) was 3.08 µM (active) in experiment [3], 24.8 µM (active) in experiment [4] and 7.81 µM (active) in the experiment on INS1. Moreover, the figures for the IC50 (in the experiment on Vero [5]; in experiment [7]; in [8]) were 9.71 µM (active), 3.45 µM (active) and 6.12 µM (active), respectively.
On to `O=[N+]([O-])c1ccccc1N/N=C/c1c[nH]c2ccccc12`, for which the IC50 is 32.8 µM (active) on Caspase-3 [9]; 3.36 µM (active) in [10]; 19 µM (active) at Nonstructural protein 1; > 100 µM (inactive) in experiment [11]; > 100 µM (inactive) in experiment [12]; 6.32 µM (active) in [13]. The IC50 at Caspase-3 [14] is 17.4 µM (active); in [15], 5.73 µM (active); in [16] it was 2.26 µM (active). The EC50 (in experiment [17]; in the experiment “cells”) was > 67.5 µM (inactive) in each case. Also, the AC50 at Cytochrome P450 2D6 was 20 µM (inconclusive).
